This passage reports binding results from article PMC7068705 (2019).

The test system of assay [1] is SpinachSA (RNA, aptamer) GGGGACGCGACUGAAUGAAAUGGUGAAGGACGGGUCCAGGUGUGGCUGCUUCGGCAGUGCAGCUUGUUGAGUAGAGUGUGAGCUCCGUAACUAGUCGCGUCUUUUUUUUUUUUUUUUUUCGAUCGAUACCGACCAGAAUCAUGCAAGUGCGUAAGAUAGUCGCGGGCCGGGAUCGAUCG
As to the kind of experiment: fluorogen fluorescence on RNA array, in situ during transcription. To be noted: 1X MEGAscript T7 transcription buffer, 37 °C, 90 min; 152 µM DFHBI; immobilised RNA.

For assay [2], the system named is MGSA (RNA, aptamer) GGAUCCCGACUGGCGAGAGCCAGGUAACGAAUGGAUCCACACACACACACACACACACGCAUGCAUACCGACCAGAAUCAUGCAAGUGCGUAAGAUAGUCGCGGGCCGGGAUGCAUGC
The assay is described as follows: fluorogen fluorescence on RNA array. The following applies: 20 mM NaCl, 6 mM MgCl2; 40 mM Tris-HCl pH 7.8, room temperature, 2 h; 40 µM malachite green; immobilised RNA.

Consider `CC1=N/C(=C\c2cc(F)c(O)c(F)c2)C(=O)N1C`, for which, in assay [1], the binding result is recorded as “yes”.
As for `CN(C)c1ccc(C(=C2C=CC(=[N+](C)C)C=C2)c2ccccc2)cc1`, the binding entry in assay [2] is recorded as “yes”.
